PubChem BioAssay AID330 (DTP/NCI, 2004)
Where “and” joins values, the source holds several entries; their conditions need not be identical. Equal values may be shown once. Inconclusive results and toxic doses are left out.

System: P388 leukemia ip, CD2F1 mice, survival T/C
Experiment: NCI In Vivo Anticancer Drug Screen. Data for tumor model P388 Leukemia (intraperitoneal) in CD2F1 (CDF1) mice
Conditions: endpoint: median survival time, higher = longer survival
In short: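 Mice carrying the transplanted tumor received test compound or vehicle. Survival was recorded in each group, and the value is the treated-group measurement divided by that of the vehicle-treated control group.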

[1] = dose: 50.0 mg/kg/injection, schedule: Q01DX009 (ip), vehicle: saline with Tween-80
[2] = dose: 100.0 mg/kg/injection, schedule: Q01DX009 (ip), vehicle: saline with Tween-80
[3] = dose: 60.0 mg/kg/injection, schedule: Q01DX005 (ip), vehicle: saline with Tween-80
[4] = dose: 120.0 mg/kg/injection, schedule: Q01DX005 (ip), vehicle: saline with Tween-80
[5] = dose: 240.0 mg/kg/injection, schedule: Q01DX005 (ip), vehicle: saline with Tween-80
[6] = dose: 100.0 mg/kg/injection, schedule: Q01DX005 (ip), vehicle: saline
[7] = dose: 50.0 mg/kg/injection, schedule: Q01DX005 (ip), vehicle: saline with Tween-80
[8] = dose: 100.0 mg/kg/injection, schedule: Q01DX005 (ip), vehicle: saline with Tween-80
[9] = dose: 200.0 mg/kg/injection, schedule: Q01DX005 (ip), vehicle: saline with Tween-80
[10] = dose: 100.0 mg/kg/injection, schedule: Q01DX001 (ip), vehicle: saline with Tween-80
[11] = dose: 200.0 mg/kg/injection, schedule: Q01DX001 (ip), vehicle: saline with Tween-80
[12] = dose: 6.25 mg/kg/injection, schedule: Q01DX009 (ip), vehicle: water
[13] = dose: 12.5 mg/kg/injection, schedule: Q01DX009 (ip), vehicle: water

SMILES: COc1ccc2c(c1)CCC(c1ccccc1)=C2c1ccc(OCCN2CCCC2)cc1
- T/C (dose: 6.0 mg/kg/injection, schedule: Q01DX005 (ip), vehicle: Klucel (hydroxypropylcellulose) (HPC)): 102 % of control
- T/C (dose: 12.0 mg/kg/injection, schedule: Q01DX005 (ip), vehicle: Klucel (hydroxypropylcellulose) (HPC)): 105 % of control
- T/C (dose: 24.0 mg/kg/injection, schedule: Q01DX005 (ip), vehicle: Klucel (hydroxypropylcellulose) (HPC)): 105 % of control
- T/C (dose: 48.0 mg/kg/injection, schedule: Q01DX005 (ip), vehicle: Klucel (hydroxypropylcellulose) (HPC)): 103 % of control

SMILES: CN1CC=Nc2c1nc(N)[nH]c2=O
- T/C [1]: 98 % of control
- T/C [2]: 95 % of control

SMILES: CCc1nc(N)nc(N)c1-c1ccc(NC2CCCCC2)c([N+](=O)[O-])c1
- T/C [3]: 101 % of control
- T/C [4]: 95 % of control
- T/C [5]: 94 % of control

SMILES: Cn1c(N)cc2nc3ccccc3n2c1=O
- T/C [3]: 96 % of control
- T/C [4]: 92 % of control
- T/C [5]: 89 % of control

SMILES: Cc1ccccc1NC(=O)c1ccc([N+](=O)[O-])cc1
- T/C [2]: 100 % of control
- T/C (dose: 200.0 mg/kg/injection, schedule: Q01DX009 (ip), vehicle: saline with Tween-80): 104 % of control
- T/C (dose: 400.0 mg/kg/injection, schedule: Q01DX009 (ip), vehicle: saline with Tween-80): 90 % of control

SMILES: CN1COc2c(n(C)c(=O)[nH]c2=O)C1
- T/C (dose: 50.0 mg/kg/injection, schedule: Q01DX005 (ip), vehicle: saline): 102 % of control and 106 % of control
- T/C [6]: 114 % of control and 115 % of control

SMILES: O=C(c1ccco1)C(O)NC(=S)c1ccc(Cl)cc1 (stereo unspecified)
- T/C [1]: 113 % of control and 117 % of control
- T/C [2]: 116 % of control

SMILES: O=C(c1ccccc1)c1nn(-c2ccccc2)c(=O)cc1-c1ccccc1
- T/C [7]: 99 % of control
- T/C [8]: 100 % of control
- T/C [9]: 100 % of control

SMILES: O=S(=O)(Nc1ccccn1)c1ccc(NCc2c3ccccc3nc3cc(Cl)ccc23)cc1
- T/C [3]: 97 % of control
- T/C [4]: 98 % of control
- T/C [5]: 96 % of control

SMILES: O=C(CBr)c1cc2c(cc1I)OCO2
- T/C (dose: 6.25 mg/kg/injection, schedule: Q01DX001 (ip), vehicle: saline with Tween-80): 104 % of control
- T/C (dose: 12.5 mg/kg/injection, schedule: Q01DX001 (ip), vehicle: saline with Tween-80): 105 % of control
- T/C (dose: 25.0 mg/kg/injection, schedule: Q01DX001 (ip), vehicle: saline with Tween-80): 99 % of control and 101 % of control
- T/C [10]: 100 % of control

SMILES: Nc1cc(-c2ccc(Cl)cc2)nn1-c1nnc2c(n1)[nH]c1ccccc12
- T/C (dose: 100.0 mg/kg/injection, schedule: Q04DX002 (ip), vehicle: saline with Tween-80): 92 % of control
- T/C (dose: 200.0 mg/kg/injection, schedule: Q04DX002 (ip), vehicle: saline with Tween-80): 94 % of control
- T/C (dose: 400.0 mg/kg/injection, schedule: Q04DX002 (ip), vehicle: saline with Tween-80): 99 % of control

SMILES: CNC(=O)Nc1ccnc2ccc3c(ncn3C(=O)NC)c12
- T/C [10]: 104 % of control
- T/C [11]: 98 % of control

SMILES: Cc1cc(NS(=O)(=O)c2ccc(N=Nc3c(O)n(-c4ccccc4)n(-c4ccccc4)c3=O)cc2)no1
- T/C (dose: 50.0 mg/kg/injection, schedule: Q01DX009 (ip), vehicle: Klucel (hydroxypropylcellulose) (HPC)): 102 % of control
- T/C (dose: 100.0 mg/kg/injection, schedule: Q01DX009 (ip), vehicle: Klucel (hydroxypropylcellulose) (HPC)): 100 % of control
- T/C (dose: 200.0 mg/kg/injection, schedule: Q01DX009 (ip), vehicle: Klucel (hydroxypropylcellulose) (HPC)): 92 % of control

SMILES: CCOC(=O)c1c(C(=O)OC)nc2n1-c1ccccc1OC2
- T/C (dose: 30.0 mg/kg/injection, schedule: Q01DX005 (ip), vehicle: saline with Tween-80): 97 % of control
- T/C [3]: 92 % of control and 94 % of control
- T/C [4]: 93 % of control
- T/C [5]: 93 % of control

SMILES: Cc1cc(NC(=O)c2ccc(NC(=O)c3ccc(N)cc3)cc2)ccc1N=Nc1ccc2c(O)c(N=Nc3ccc(S(=O)(=O)O)cc3C)c(S(=O)(=O)O)cc2c1
- T/C [7]: 104 % of control and 107 % of control and 108 % of control
- T/C [8]: 105 % of control and 112 % of control and 117 % of control
- T/C [9]: 107 % of control and 114 % of control
- T/C (dose: 400.0 mg/kg/injection, schedule: Q01DX005 (ip), vehicle: saline with Tween-80): 113 % of control and 119 % of control

SMILES: COc1ccc(C(=O)C(C)Oc2ccccc2OC)cc1OC (stereo unspecified)
- T/C (dose: 10.0 mg/kg/injection, schedule: Q01DX005 (ip), vehicle: Klucel (hydroxypropylcellulose) (HPC)): 99 % of control
- T/C (dose: 20.0 mg/kg/injection, schedule: Q01DX005 (ip), vehicle: Klucel (hydroxypropylcellulose) (HPC)): 100 % of control
- T/C (dose: 40.0 mg/kg/injection, schedule: Q01DX005 (ip), vehicle: Klucel (hydroxypropylcellulose) (HPC)): 101 % of control

SMILES: CC1CN=C(c2ccc(NC(=O)NCCCNC(=O)Nc3ccc(C4=NCC(C)N4)cc3)cc2)N1 (stereo unspecified)
- T/C (dose: 50.0 mg/kg/injection, schedule: Q01DX005 (ip), vehicle: Klucel (hydroxypropylcellulose) (HPC)): 153 % of control and 158 % of control

SMILES: Cc1ccc(N/N=C/C(=O)O)cc1
- T/C (dose: 12.5 mg/kg/injection, schedule: Q01DX009 (ip), vehicle: other): 113 % of control
- T/C (dose: 25.0 mg/kg/injection, schedule: Q01DX009 (ip), vehicle: other): 103 % of control
- T/C (dose: 50.0 mg/kg/injection, schedule: Q01DX009 (ip), vehicle: other): 112 % of control
- T/C (dose: 100.0 mg/kg/injection, schedule: Q01DX009 (ip), vehicle: other): 98 % of control
- T/C (dose: 200.0 mg/kg/injection, schedule: Q01DX009 (ip), vehicle: other): 116 % of control
- T/C (dose: 400.0 mg/kg/injection, schedule: Q01DX009 (ip), vehicle: other): 116 % of control

SMILES: O=NN(CCOCCCl)C(=O)NC1CCCCC1
- T/C [12]: 100 % of control
- T/C [13]: 100 % of control
- T/C (dose: 25.0 mg/kg/injection, schedule: Q01DX009 (ip), vehicle: water): 107 % of control
- T/C (dose: 200.0 mg/kg/injection, schedule: Q01DX009 (ip), vehicle: water): 152 % of control

SMILES: CCn1c(Cl)c(/C=N/Nc2ccccc2[N+](=O)[O-])c2cc(/C=N/Nc3ccccc3[N+](=O)[O-])ccc21
- T/C (dose: 100.0 mg/kg/injection, schedule: Q01DX001 (ip), vehicle: Klucel (hydroxypropylcellulose) (HPC)): 87 % of control
- T/C (dose: 200.0 mg/kg/injection, schedule: Q01DX001 (ip), vehicle: Klucel (hydroxypropylcellulose) (HPC)): 93 % of control
- T/C (dose: 400.0 mg/kg/injection, schedule: Q01DX001 (ip), vehicle: Klucel (hydroxypropylcellulose) (HPC)): 91 % of control

SMILES: N#CN=C(N)N
- T/C (dose: 18.8 mg/kg/injection, schedule: Q01DX005 (ip), vehicle: saline): 115 % of control
- T/C (dose: 37.5 mg/kg/injection, schedule: Q01DX005 (ip), vehicle: saline): 112 % of control
- T/C (dose: 75.0 mg/kg/injection, schedule: Q01DX005 (ip), vehicle: saline): 98 % of control
- T/C [6]: 96 % of control
- T/C (dose: 150.0 mg/kg/injection, schedule: Q01DX005 (ip), vehicle: saline): 105 % of control
- T/C (dose: 200.0 mg/kg/injection, schedule: Q01DX005 (ip), vehicle: saline): 102 % of control
- T/C (dose: 300.0 mg/kg/injection, schedule: Q01DX005 (ip), vehicle: saline): 118 % of control
- T/C (dose: 400.0 mg/kg/injection, schedule: Q01DX005 (ip), vehicle: saline): 99 % of control
- T/C (dose: 600.0 mg/kg/injection, schedule: Q01DX005 (ip), vehicle: saline): 112 % of control
- T/C (dose: 800.0 mg/kg/injection, schedule: Q01DX005 (ip), vehicle: saline): 101 % of control

SMILES: O=[N+]([O-])c1ccc([Se]CCBr)c([N+](=O)[O-])c1
- T/C (dose: 100.0 mg/kg/injection, schedule: Q04DX003 (ip), vehicle: Klucel (hydroxypropylcellulose) (HPC)): 101 % of control
- T/C (dose: 200.0 mg/kg/injection, schedule: Q04DX003 (ip), vehicle: Klucel (hydroxypropylcellulose) (HPC)): 101 % of control

SMILES: Cc1cccc(-c2cc3cccnc3nc2NN=O)c1C
- T/C (dose: 3.12 mg/kg/injection, schedule: Q01DX009 (ip), vehicle: water): 106 % of control
- T/C [12]: 105 % of control and 122 % of control
- T/C [13]: 111 % of control
- T/C (dose: 50.0 mg/kg/injection, schedule: Q01DX009 (ip), vehicle: water): 106 % of control and 121 % of control
- T/C (dose: 100.0 mg/kg/injection, schedule: Q01DX009 (ip), vehicle: water): 93 % of control

SMILES: CCC(c1ccc(OC)cc1)C(NCC(=O)N/N=C/c1c[nH]c2ccccc12)c1ccc(OC)cc1 (stereo unspecified)
- T/C [10]: 94 % of control
- T/C [11]: 87 % of control
